Source: US20160271086A1, “METHODS AND COMPOSITIONS FOR INDUCING REGULATORY T-CELL GENERATION” (SLOAN-KETTERING INSTITUTE FOR CANCER RESEARCH, priority 2013, published 2016)
Entries after “also recorded” stand apart in the source; their conditions may differ.

Key:
naïve CD4+ T cells [1] = test: In vitro Foxp3 induction assay: naïve CD4+ T cells co-cultured with DC, CD3 antibody, TGF-β, IL-2; assay type: cell-based, mouse; conditions: purified SCFA
Experimental: For in vitro experiments, CD4+ T cells and CD11c+ dendritic cells were enriched using mouse CD4 (L3T4, Invitrogen) and mouse CD11c (N418, BioLegend) antibodies, respectively, that were biotinylated for use with streptavidin-Dynabeads (Invitrogen). Enriched cells were then sorted on a FACSAria II cell sorter (BD Biosciences) for in vitro assays. Intracellular staining for IL-17, IFN-γ, IL-4, IL-13 and Foxp3 was performed using the Foxp3 staining kit (eBiosciences). Cytokine staining was performed after re-stimulation with CD3 antibody and CD28 antibody (5 μg ml-1 each) in the presence of Golgi-plug (BD Biosciences) for 5 hours. DC were expanded in vivo by subcutaneous injection of B16 melanoma cells secreting FLT3-ligand into the left hind flank of mice as indicated. Once tumors were visible, spleens from injected animals were dissociated in RPMI 1640 medium containing 1.67 U mL-1 liberase TL (Roche) and 50 μg mL-1 DNAse I (Roche) for 20 min at 37° C. with shaking EDTA was then added at a final concentration of 5 mM to stop digestion and the resulting homogenate was processed for CD11c+ cell isolation using the MACS mouse CD11c (N418) purification kit (Miltenyi Biotec). In vitro Foxp3 induction assays were performed by co-culturing DC with 5.5×10^4 CD4+CD44loCD62LhiCD25-naïve T cells in the presence of 1 μg ml-1 of CD3 antibody, 1 ng mL-1 TGF-β, and 100 U ml-1 IL-2, in 96-well flat-bottom plates for 4 d. For Foxp3 induction in the presence of butyrate- or TSA-pretreated DC, TGF-β was used at 0.1 ng mL-1 final concentration. In vitro induction assays in the absence of DC were performed by incubating 5.5×10^4 naïve CD4+ T cells with 1 ng mL-1 TGF-β, 100 U ml-1 IL-2, and a 1:1 cell-to-bead ratio of CD3/CD28 T activator Dynabeads (Invitrogen). […] Proliferation of T cells was assessed by [3H]-thymidine incorporation during the final 8 h of culture.

Foxp3+ Treg cells = test: SCFA in drinking water to AVNM-treated mice, flow cytometric analysis of Foxp3+ Treg cell subsets; assay type: in vivo; conditions: for colonic Treg cells (accumulation of Treg cells in the colon): SCFA in drinking water; for Treg cell subsets in the spleen: drinking water, AVNM-treated CNS1-sufficient mice
Description: Fox[…] (CNS1 knockout), Foxp3GFP, Foxp3Thy1.1 and Gpr109a-/- mice were used in the experiments as previously described (Zheng. Y. et al. Nature, 2010, 463, 808-12; Fontenot, J. D. et al. Immunity, 2005, 22, 329-41; Kim, J. M., et al. Nat Immunol, 2007, 8, 191-7). Male C57BL/6 (B6) mice were purchased from the Jackson Laboratory and groups of 5 co-housed mice were randomly assigned to treatment vs. control groups after confirmation that age and weight were in accordance between groups. Male mice were used for all experiments. All strains were maintained in the Sloan-Kettering Institute animal facility in accordance with institutional guidelines. Mice were sacrificed by CO2 asphyxiation then blindly processed for tissue harvest thereafter. For antibiotic treatment, mice at 5-6 weeks of age were treated with 1 g L-1 metronidazole (Sigma-Aldrich), 0.5 g L-1 vancomycin (Hospira), 1 g L-1 ampicillin (Sigma-Aldrich) and 1 g L-1 kanamycin (Fisher Scientific) dissolved in drinking water. […] Butyrate was administered to mice after prior treatment with antibiotics for at least 1 week. For in vitro experiments, CD4+ T cells and CD11c+ dendritic cells were enriched using mouse CD4 (L3T4, Invitrogen) and mouse CD11c (N418, BioLegend) antibodies, respectively, that were biotinylated for use with streptavidin-Dynabeads (Invitrogen). Enriched cells were then sorted on a FACSAria II cell sorter (BD Biosciences) for in vitro assays. Intracellular staining for IL-17, IFN-γ, IL-4, IL-13 and Foxp3 was performed using the Foxp3 staining kit (eBiosciences). Cytokine staining was performed after re-stimulation with CD3 antibody and CD28 antibody (5 μg ml-1 each) in the presence of Golgi-plug (BD Biosciences) for 5 hours.

GPR43 = target: T1, GPR43 (Mus musculus, UniProt Q8VCK6); conditions: Smith et al. Science 2013; cited from earlier work
T1 sequence (Q8VCK6 1-330): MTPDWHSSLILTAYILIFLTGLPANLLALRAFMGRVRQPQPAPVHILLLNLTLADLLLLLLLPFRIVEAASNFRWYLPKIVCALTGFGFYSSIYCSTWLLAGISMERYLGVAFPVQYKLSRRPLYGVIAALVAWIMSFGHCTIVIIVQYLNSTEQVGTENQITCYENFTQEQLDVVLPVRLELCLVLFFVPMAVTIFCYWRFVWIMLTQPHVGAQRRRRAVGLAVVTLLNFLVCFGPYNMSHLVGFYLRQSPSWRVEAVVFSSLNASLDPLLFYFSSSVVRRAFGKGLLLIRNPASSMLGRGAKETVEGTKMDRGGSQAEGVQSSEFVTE

Flt3L-elicited DC = test: Foxp3 induction by DC pre-treated with SCFA or TSA for 6 h, washed, co-cultured with naïve CD4+ T cells; assay type: cell-based, mouse; conditions: DC pre-treated 6 h, then agent removed
Experimental: DC were expanded in vivo by subcutaneous injection of B16 melanoma cells secreting FLT3-ligand into the left hind flank of mice as indicated. Once tumors were visible, spleens from injected animals were dissociated in RPMI 1640 medium containing 1.67 U mL-1 liberase TL (Roche) and 50 μg mL-1 DNAse I (Roche) for 20 min at 37° C. with shaking EDTA was then added at a final concentration of 5 mM to stop digestion and the resulting homogenate was processed for CD11c+ cell isolation using the MACS mouse CD11c (N418) purification kit (Miltenyi Biotec).
(§1) In vitro Foxp3 induction assays were performed by co-culturing DC with 5.5×10^4 CD4+CD44loCD62LhiCD25-naïve T cells in the presence of 1 μg ml-1 of CD3 antibody, 1 ng mL-1 TGF-β, and 100 U ml-1 IL-2, in 96-well flat-bottom plates for 4 d. For Foxp3 induction in the presence of butyrate- or TSA-pretreated DC, TGF-β was used at 0.1 ng mL-1 final concentration. In vitro induction assays in the absence of DC were performed by incubating 5.5×10^4 naïve CD4+ T cells with 1 ng mL-1 TGF-β, 100 U ml-1 IL-2, and a 1:1 cell-to-bead ratio of CD3/CD28 T activator Dynabeads (Invitrogen). For in vitro suppression assays, 4×10^4 naïve CD4+ T cells were FACS-sorted from B6 mice and cultured with graded numbers of CD4+Foxp3+ Treg cells FACS-sorted from Foxp3GFP mice treated with antibiotics and with or without butyrate, in the presence of […] irradiated T cell-depleted splenocytes and 1 μg ml-1 CD3 antibody in a 96-well round-bottom plate for 80 h. Proliferation of T cells was assessed by [3H]-thymidine incorporation during the final 8 h of culture.

[2] = LC-MS analysis of butyrate in serum; assay type: in vivo; conditions: AVNM-treated mice given butyrate in drinking water vs unperturbed SPF mice
Description: Foxp3ΔCNS1 (CNS1 knockout), Foxp3GFP, Foxp3Thy1.1 and Gpr109a−/− mice were used in the experiments as previously described (Zheng. Y. et al. Nature, 2010, 463, 808-12; Fontenot, J. D. et al. Immunity, 2005, 22, 329-41; Kim, J. M., et al. Nat Immunol, 2007, 8, 191-7). Male C57BL/6 (B6) mice were purchased from the Jackson Laboratory and groups of 5 co-housed mice were randomly assigned to treatment vs. control groups after confirmation that age and weight were in accordance between groups. Male mice were used for all experiments. All strains were maintained in the Sloan-Kettering Institute animal facility in accordance with institutional guidelines. Mice were sacrificed by CO2 asphyxiation then blindly processed for tissue harvest thereafter. For antibiotic treatment, mice at 5-6 weeks of age were treated with 1 g L-1 metronidazole (Sigma-Aldrich), 0.5 g L-1 vancomycin (Hospira), 1 g L-1 ampicillin (Sigma-Aldrich) and 1 g L-1 kanamycin (Fisher Scientific) dissolved in drinking water. For butyrate, acetate and propionate administration, each SCFA was added to drinking water containing antibiotics (as described above) at a final concentration of 36 mM and pH-adjusted, if needed, to match that of antibiotic-only water. Butyrate was administered to mice after prior treatment with antibiotics for at least 1 week. […]

[3] = system: Flt3L-elicited CD11c+ dendritic cells; test: DC viability by live/dead staining and flow cytometry; assay type: cell-based, mouse; conditions: butyrate pretreatment 6 h
naïve CD4+ T cells [4] = test: In vitro Foxp3 induction in the absence of DC (CD3/CD28 antibody-coated beads, TGF-β); assay type: cell-based, mouse; conditions: purified naive CD4+ T cells, CD3 and CD28 antibody-coated beads
Experimental: as §1

[5] = system: Foxp3 promoter and CNS1 enhancer; test: H3K27Ac ChIP-qPCR at the Foxp3 locus; assay type: cell-based, mouse; conditions: 3 days, CD3/CD28 beads and TGF-β
Experimental: H3K27Ac ChIP-qPCR was performed as previously described (Samstein, R. M. et al. Cell, 2012, 151, 153-66). Briefly, fixed cells were lysed and mono- and poly-nucleosomes were obtained by partial digestion with micrococcal nuclease (12,000 U mL-1) in 1 min at 37° C. EDTA was added to a final concentration of 50 mM to stop the reaction, and digested nuclei were resuspended in nuclear lysis buffer with 1% SDS. After sonication, 1 ug H3K27Ac-specific antibody (Abcam, ab4729) was used to precipitate H3K27Ac-bound chromatin. Washing and de-crosslinking was performed as described (Samstein, R. M. et al. Cell, 2012, 151, 153-66).

[6] = Butyrate levels in fecal pellets after butyrate in drinking water; assay type: in vivo; conditions: AVNM-treated mice given butyrate via drinking water
Experimental: Stool samples were collected directly into sterile tubes from live mice and snap-frozen before preparation of material for SCFA quantification by HPLC or LC-MS (see corresponding section for further sample processing).
HPLC analysis was performed for analysis of derivatized stool extracts as previously described (Torii, T. et al. Ann. Clin. Biochem, 2010, 47, 447-452). Briefly, flash-frozen stool samples were extracted with 70% ethanol and brought to a final concentration of 0.1 μg μL-1. Debris was removed by centrifugation and 300 μL of supernatant was transferred to a new tube and combined with 50 μL of internal standard (2-ethylbutyric acid, 200 mM in 50% aqueous methanol), 300 μL of dehydrated pyridine 3% v/v (Wako) in ethanol, 300 μL of 250 mM N-(3-dimethlaminopropyl)-N′-ethylcarbodiimide hydrochloride (Sigma-Aldrich) in ethanol, and 300 μL of 20 mM 2-nitrophenylhydrazine hydrochloride (Tokyo Chemical) in ethanol. Samples were incubated at 60° C. for 20 min and 200 μL of potassium hydroxide 15% w/v dissolved 80/20 in methanol was added to stop the derivatization reaction. […] Derivatized SCFA were resuspended in 100 μL of mobile phase (below) and 20 μL was chromatographed on a Shimadzu HPLC system equipped with a Vydac 2.1×30 mm 300 A C18 column run at 200 μL min-1 in methanol/acetonitrile/TFA (30%/16%/0.1% v/v) and monitored for absorbance at 400 nm.

Compound | TGF-β-dependent generation of Foxp3+ cells in vitro (naïve CD4+ T cells [1]) | colonic Treg cells (accumulation of Treg cells in the colon) (Foxp3+ Treg cells; AVNM-treated mice) | Treg cell subsets in the spleen (Foxp3+ Treg cells) | accumulation of Treg cells in the colon by activating GPR43 (GPR43) | ability of pre-treated DCs to induce Foxp3 expression in naïve CD4+ T cells (Flt3L-elicited DC) | butyrate serum levels [2] | non-lymphoid tissue histology (Foxp3+ Treg cells; butyrate in drinking water, AVNM-treated mice) | DC viability [3] | increase in numbers of Foxp3+ cells in DC-free cultures (naïve CD4+ T cells [4]) [fold] | increase in H3K27-Ac occupancy ([5]; Foxp3+ cells) [%] | increase in H3K27-Ac at the Foxp3 promoter and CNS1 enhancer ([5]; Foxp3− cells) [fold] | levels of butyrate in fecal pellets [6]
CC(C)CC(=O)O [isovalerate] | augmented | – | – | – | – | – | – | – | – | – | – | –
CCC(=O)O [propionate] | augmented | promoted accumulation | increased | promote accumulation | to a lesser extent | – | – | – | – | – | – | –
CCCC(=O)O [butyrate] | – | – | – | – | – | comparable to those found in unperturbed SPF mice | remained unchanged | no detrimental effect; also recorded: maintain | < 1.5 | ~30 | 3 | not reconstituted
CC(=O)O [acetate] | not | promoted accumulation | did not increase | promote accumulation | not | – | – | – | – | – | – | –
